{
  "source": "paper PMC10687071",
  "about": "(The Journal of Biological Chemistry, 2023)",
  "key": {"[1]": {"molecular_target": "T1, D39G mutant EAG1 channels (Mus musculus, UniProt Q60603, D39G)", "T1 construct": "expressed in transfected cells; host or cells: Xenopus laevis oocytes injected with cRNA", "T1 sequence (Q60603 1-989 D39G)": "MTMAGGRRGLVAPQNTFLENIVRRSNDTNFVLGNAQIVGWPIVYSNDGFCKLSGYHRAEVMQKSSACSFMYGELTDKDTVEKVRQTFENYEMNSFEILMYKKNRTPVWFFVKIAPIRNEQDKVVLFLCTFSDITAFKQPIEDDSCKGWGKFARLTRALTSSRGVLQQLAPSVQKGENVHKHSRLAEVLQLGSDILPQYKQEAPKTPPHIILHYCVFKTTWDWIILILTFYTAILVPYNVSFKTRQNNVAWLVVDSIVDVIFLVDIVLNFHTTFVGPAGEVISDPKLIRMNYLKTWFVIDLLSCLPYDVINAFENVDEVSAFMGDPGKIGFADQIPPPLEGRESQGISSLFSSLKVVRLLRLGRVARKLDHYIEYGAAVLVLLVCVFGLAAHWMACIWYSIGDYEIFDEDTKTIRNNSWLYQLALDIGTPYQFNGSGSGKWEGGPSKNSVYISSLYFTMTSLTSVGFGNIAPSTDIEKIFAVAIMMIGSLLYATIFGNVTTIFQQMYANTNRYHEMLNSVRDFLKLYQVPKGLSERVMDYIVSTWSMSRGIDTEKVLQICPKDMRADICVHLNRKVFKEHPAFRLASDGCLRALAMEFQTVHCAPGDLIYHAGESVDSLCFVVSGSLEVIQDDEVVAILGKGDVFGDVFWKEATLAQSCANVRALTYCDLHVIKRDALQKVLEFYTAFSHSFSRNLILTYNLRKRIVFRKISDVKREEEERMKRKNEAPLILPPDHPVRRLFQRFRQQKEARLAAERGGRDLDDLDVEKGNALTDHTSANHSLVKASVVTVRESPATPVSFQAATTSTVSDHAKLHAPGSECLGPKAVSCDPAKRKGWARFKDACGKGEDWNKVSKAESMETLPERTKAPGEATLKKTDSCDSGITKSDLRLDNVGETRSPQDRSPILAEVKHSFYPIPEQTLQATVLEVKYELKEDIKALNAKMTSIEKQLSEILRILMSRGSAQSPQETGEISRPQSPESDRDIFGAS", "test": "TEVC recording, imipramine inhibition, D39G mutant", "type": "cell-based", "conditions": "D39G mutant EAG1 channel, +50 mV", "text": "(§1) The cDNA encoding wild-type (WT) mouse EAG1 channels in pGH19 vector was kindly provided by G. Robertson (University of Wisconsin-Madison, Madison, WI). The mutant ΔPAS EAG1 channel in pGH19 with the deletion of the PAS domain residues 2 to 130 was generated by Bio Basic Inc and verified by DNA sequencing (Genewiz). Mutant EAG1 channels with single amino acid substitutions were generated by Genewiz and verified by DNA sequencing. cRNA was transcribed using the T7 mMessage mMachine kit (Thermo Fisher Scientific). Defolliculated Xenopus laevis oocytes were purchased from Ecocyte Bioscience or Xenopus1 and injected with the cRNA using a Nanoinject II oocyte injector (Drummond).\n(§2) For EAG1 current recordings, oocytes were placed into a handmade chamber containing a bath solution for the current recording. The currents were recorded using a TEVC technique with OC-725C amplifier (Warner Instruments) and pClamp11 software (Molecular Devices). The signals were digitized using Digidata 1550 (Molecular Devices). Patch pipettes were pulled from borosilicate glass and had resistances of 0.7 to 1.5 MΩ. The recording (bath) solution contained 96 mM NaCl, 4 mM KCl, 0.1 mM CaCl2, 1.8 mM MgCl2, and 5 mM HEPES, pH 7.5. The pipette solution contained 3 M KCl. […]"}, "[2]": {"molecular_target": "T2, V83G mutant EAG1 channels (Mus musculus, UniProt Q60603, V83G)", "T2 construct": "expressed in transfected cells; host or cells: Xenopus laevis oocytes injected with cRNA", "T2 sequence (Q60603 1-989 V83G)": "T1 sequence (Q60603 1-989 D39G) with G39D, V83G", "test": "TEVC recording, imipramine inhibition, V83G mutant", "type": "cell-based", "conditions": "V83G mutant EAG1 channel, +50 mV", "text": "as §1, §2"}, "EAG1 channels": {"test_system": "EAG1 channels", "conditions": "HEK293, whole-cell configuration; read-out: IC50 for EAG1 currents recorded from HEK293 in the whole-cell configuration; cited from earlier work"}},
  "note": "Changes are numbered by the printed parent chain.",
  "data": [
    {"smiles": "CN(C)CCCN1c2ccccc2CCc2ccccc21", "note": "[imipramine]", "values": [
      {"measurement": "IC50", "setting": "[1]", "value": "79.6 ± 5.4", "unit": "µM"},
      {"measurement": "IC50", "setting": "[2]", "value": "44.3 ± 2.6", "unit": "µM"},
      {"measurement": "IC50", "setting": "EAG1 channels", "value": "~2", "unit": "µM"}
    ]}
  ]
}
